Assay results: PMC2923275 (Biochemical pharmacology, 2010)

Experiments:
[1] = test system: wild type (RH) strain of T. gondii; assay: Anti-toxoplasmic activity in tissue culture; assay type: cell-based, Toxoplasma gondii; settings: wild type (RH) in human fibroblasts
[2] = test system: adenosine kinase deficient (TgAK^-3) strain of T. gondii; assay: Anti-toxoplasmic activity in tissue culture; assay type: cell-based, Toxoplasma gondii; settings: TgAK^-3 in human fibroblasts
[3] = test system: Toxoplasma gondii adenosine kinase; settings: cited from earlier work; for Km: read-out: Km (binding affinity), apparent Km equal to apparent Ki
[4] = molecular target: purified T. gondii adenosine kinase (Toxoplasma gondii, UniProt Q9TVW2); assay: Alternative substrate assay with purified recombinant enzyme; assay type: biochemical; settings: 100 μM analogue, overnight at 37°C, HPLC
[5] = test system: uninfected human foreskin fibroblasts; assay: Host toxicity, MTT assay on uninfected host cells; settings: infection: None
[6] = test system: Toxoplasma gondii adenosine kinase; assay: Binding affinity; settings: relative to 6-(p-methylbenzylthio)inosine; ref 24 and Table 2

Chain of purified T. gondii adenosine kinase (Q9TVW2 whole entry): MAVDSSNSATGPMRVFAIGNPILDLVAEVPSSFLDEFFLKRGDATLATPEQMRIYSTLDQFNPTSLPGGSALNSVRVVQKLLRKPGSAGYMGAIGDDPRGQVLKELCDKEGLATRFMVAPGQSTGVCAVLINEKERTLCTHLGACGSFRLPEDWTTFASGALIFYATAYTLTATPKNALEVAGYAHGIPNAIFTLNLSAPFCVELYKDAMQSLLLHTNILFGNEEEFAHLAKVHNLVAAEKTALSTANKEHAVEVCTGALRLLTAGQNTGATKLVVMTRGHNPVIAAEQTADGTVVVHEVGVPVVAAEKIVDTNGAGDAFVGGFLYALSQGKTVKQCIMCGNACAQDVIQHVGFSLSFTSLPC

Molecule	percent survival of parasite ([1]; 5 μM compound) [%]	percent survival of parasite ([1]; 10 μM compound) [%]	percent survival of parasite ([1]; 25 μM compound) [%]	percent survival of parasite ([1]; 50 μM compound) [%]	percent survival of parasite ([2]; 5 μM compound) [%]	percent survival of parasite ([2]; 10 μM compound) [%]	percent survival of parasite ([2]; 25 μM compound) [%]	percent survival of parasite ([2]; 50 μM compound) [%]	Km [3] [µM]	increase of relative binding affinity by inclusion of the 7-deaza motif ([3]; relative to 6-(p-methylbenzylthio)inosine) [fold]	metabolism to nucleoside 5'-monophosphate by the enzyme [4]	host-toxicity (survival of uninfected host cells) ([5]; 5 μM compound) [%]	host-toxicity (survival of uninfected host cells) ([5]; 10 μM compound) [%]	host-toxicity (survival of uninfected host cells) ([5]; 25 μM compound) [%]	host-toxicity (survival of uninfected host cells) ([5]; 50 μM compound) [%]	enhancement of binding by inclusion of the carbocyclic motif [6] [fold]
6-Benzylthioinosine [Compound 22, reference compound]	92.7	45.8	7.6	0.0	100	100	100	100	14.3	–	–	–	–	–	–	–
7-deaza-6-(p-methylbenzylthio)inosines	–	–	–	–	–	–	–	–	–	2.8	–	–	–	–	–	–
OCC1CC(n2cnc3c(SCc4ccccc4)ncnc32)C(O)C1O (centres unmarked) [Compound 1, Carbocyclic 6-(benzylthio)inosine]	84.7	42.7	4.9	0.0	100	100	100	100	105	–	converted to their respective nucleoside 5’-monophosphates	100	100	100	94.3	–
OCC1CC(n2cnc3c(SCc4ccc(F)cc4)ncnc32)C(O)C1O (centres unmarked) [Compound 8, Carbocyclic 6-(p-fluorobenzylthio)inosine]	89.2	61.5	12.4	3.4	100	100	100	100	–	–	its 5’-monophosphate derivative appeared as a new peak	100	100	100	100	–
Cc1ccc(CSc2ncnc3c2ncn3C2CC(CO)C(O)C2O)cc1 (centres unmarked) [Compound 11, Carbocyclic 6-(p-methylbenzylthio)inosine]	43.4	2.54	0.0	0.0	99.0	100	100	100	–	–	–	100	100	100	100	3.7
CS(=O)(=O)c1ccc(CSc2ncnc3c2ncn3C2CC(CO)C(O)C2O)cc1 (centres unmarked) [Compound 17, Carbocyclic 6-(p-methylsulfonylbenzylthio)inosine]	66.8	21.2	0.0	0.0	100	100	100	100	–	–	–	100	100	100	100	–
OCC1CC(n2cnc3c(SCc4ccc(Cl)cc4Cl)ncnc32)C(O)C1O (centres unmarked) [Compound 18, Carbocyclic 6-(o,p-dichlorobenzylthio)inosine]	84.4	45.1	0.0	0.0	100	100	100	100	–	–	–	100	100	100	90.6	–
OCC1CC(n2cnc3c(SCc4ccc(Cl)c(Cl)c4)ncnc32)C(O)C1O (centres unmarked) [Compound 19, Carbocyclic 6-(m,p-dichlorobenzylthio)inosine]	59.7	17.8	8.3	1.5	100	100	100	100	–	–	–	100	100	100	73.1	–
OCC1CC(n2cnc3c(SCc4c(F)cccc4Cl)ncnc32)C(O)C1O (centres unmarked) [Compound 20, Carbocyclic 6-(o-chloro-o-fluorobenzylthio)inosine]	56.3	15.6	3.7	0.0	100	100	100	100	–	–	–	100	100	100	100	–
Cc1ccc(CSc2ncnc3c2ncn3C2CC(CO)C(O)C2O)c(C)c1C (centres unmarked) [Compound 21, Carbocyclic 6-(o,m,p-trimethylbenzylthio)inosine]	71.0	32.7	0.0	0.0	100	100	100	100	–	–	–	100	100	90.6	93.2	–
